Data from patent US9328083B2, “2-aminated methylene or 2-esterified methylene tanshinone derivatives, and preparation method and application thereof” (HANGZHOU BENSHENG PHARMACEUTICAL CO., LTD., priority 2011, dated 2016).
Values after ≈ are worked out from the molar mass of the structure shown.

Legend:
[1] = system: H9 (acute lymphoblastic leukemia, ALL); test: MTT growth inhibition of leukemia cells, 72 h; type: cell-based, human; conditions: Homo sapiens, H9, 72 h; for IC50: read-out: IC50; for IC90: read-out: IC90
Summary of the method: (§1)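 Seed 6000 cells per well in serum-supplemented RPMI-1640 (10% FBS); next day add derivatives at several concentrations, diluted from a 10 mg/mL DMSO stock; incubate 72 h at 37 °C, 5% CO2; quantify surviving cells with MTT.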

[2] = system: Jurkat (acute lymphoblastic leukemia, ALL); test: MTT growth inhibition of leukemia cells, 72 h; type: cell-based, human; conditions: Homo sapiens, 72 h; for IC50: read-out: IC50; for IC90: read-out: IC90
Summary of the method: as §1

[3] = system: K562/adr (drug-resistant, chronic myeloid leukemia, CML); test: MTT growth inhibition of leukemia cells, 72 h; type: cell-based, human; conditions: Homo sapiens, K562/Adr; for IC50: read-out: IC50; for IC90: read-out: IC90
Summary of the method: as §1

[4] = system: Kasumi-1 (acute myeloid leukemia M2 type, AML-M2); test: MTT growth inhibition of leukemia cells, 72 h; type: cell-based, human; conditions: Homo sapiens, Kasumi-1, 72 h; for IC50: read-out: IC50; for IC90: read-out: IC90
Summary of the method: as §1

[5] = system: NB4 (acute promyelocytic leukemia, AML); test: MTT growth inhibition of leukemia cells, 72 h; type: cell-based, human; conditions: Homo sapiens, NB4, 72 h; for IC50: read-out: IC50; for IC90: read-out: IC90
Summary of the method: as §1

[6] = system: RPMI8226 (multiple myeloma); test: MTT growth inhibition of multiple myeloma cells, 72 h; type: cell-based, human; conditions: Homo sapiens, RPMI 8226, 72 h; for IC50: read-out: IC50; for IC90: read-out: IC90
Summary of the method: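 Viability read by MTT after 72 h at 37° C, 5% CO2: compounds from a 10 mg/mL DMSO stock were diluted in medium and added at several concentrations to 6000 RPMI8226 cells per well in 1640 medium plus 10% FBS.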

A549 (human lung cancer) = test: MTT growth inhibition of human solid tumor cells, 72 h; type: cell-based; conditions: Homo sapiens, A549, 72 h; for IC50: read-out: IC50; for IC90: read-out: IC90
Summary of the method: (§2)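 Growth medium: DMEM High Glucose, 10% FBS. Seeding density 4000 cells per well, preincubated one day at 37° C/5% CO2 before dosing with derivatives over a concentration range.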

[7] = system: Becap37 (human breast cancer cell); test: as above; type: cell-based; conditions: Homo sapiens, Becap-37, 72 h; for IC50: read-out: IC50; for IC90: read-out: IC90
Summary of the method: as §2

[8] = system: CNE (nasopharyngeal carcinoma cell); test: as above; type: cell-based; conditions: Homo sapiens; for IC50: read-out: IC50; for IC90: read-out: IC90
Summary of the method: as §2

[9] = system: CaES-17 (esophageal cancer cell); test: as above; type: cell-based; conditions: Homo sapiens, CaEs17, CaEs-17, 72 h; for IC50: read-out: IC50; for IC90: read-out: IC90
Summary of the method: as §2

[10] = system: Hela (human cervical cancer cell); test: as above; type: cell-based; conditions: Homo sapiens, HeLa, 72 h; for IC50: read-out: IC50; for IC90: read-out: IC90
Summary of the method: as §2

[11] = system: Hep G2 (human liver cancer cell); test: as above; type: cell-based; conditions: Homo sapiens, HepG2, Hep G2, 72 h; for IC50: read-out: IC50; for IC90: read-out: IC90
Summary of the method: as §2

[12] = system: Hep-2 (laryngeal carcinoma); test: as above; type: cell-based; conditions: Homo sapiens, HEp-2, 72 h; for IC50: read-out: IC50; for IC90: read-out: IC90
Summary of the method: as §2

MG63 (osteosarcoma) = test: as above; type: cell-based; conditions: Homo sapiens, MG-63, 72 h; for IC50: read-out: IC50; for IC90: read-out: IC90
Summary of the method: as §2

[13] = system: MGC 803 (human gastric cancer cell); test: as above; type: cell-based; conditions: Homo sapiens, MGC-803, 72 h; for IC50: read-out: IC50; for IC90: read-out: IC90
Summary of the method: as §2

[14] = system: PANC-1 (pancreatic cancer); test: as above; type: cell-based; conditions: Homo sapiens, PANC-1, 72 h; for IC50: read-out: IC50; for IC90: read-out: IC90
Summary of the method: as §2

PC-3 (prostate cancer) = test: as above; type: cell-based; conditions: Homo sapiens, PC-3, 72 h; for IC50: read-out: IC50; for IC90: read-out: IC90
Summary of the method: as §2

[15] = system: RKO (human colon adenocarcinoma cell); test: as above; type: cell-based; conditions: Homo sapiens; for IC50: read-out: IC50; for IC90: read-out: IC90
Summary of the method: as §2

[16] = system: SK-OV-3 (ovarian cancer cell); test: as above; type: cell-based; conditions: Homo sapiens, SK-OV-3, 72 h; for IC50: read-out: IC50; for IC90: read-out: IC90
Summary of the method: as §2

[17] = system: U87 MG (malignant glioma cell); test: as above; type: cell-based; conditions: Homo sapiens, U-87 MG, U87-MG, 72 h; for IC50: read-out: IC50; for IC90: read-out: IC90
Summary of the method: as §2

## COC(=O)/C=C/C(=O)OCCN(C)Cc1oc2c(c1C)C(=O)C(=O)c1c-2ccc2c(C)cccc12 [BS-TA-74]
[1]
  IC50: 0.25 µg/mL (≈ 0.526 µM)
  IC90: 1.49 µg/mL (≈ 3.13 µM)
[2]
  IC50: 0.96 µg/mL (≈ 2.02 µM)
  IC90: 1.86 µg/mL (≈ 3.91 µM)
[3]
  IC50: 0.8 µg/mL (≈ 1.68 µM)
  IC90: 1.8 µg/mL (≈ 3.79 µM)
[4]
  IC50: 0.26 µg/mL (≈ 0.547 µM)
  IC90: 1.57 µg/mL (≈ 3.3 µM)
[5]
  IC50: 0.19 µg/mL (≈ 0.4 µM)
  IC90: 0.49 µg/mL (≈ 1.03 µM)
[6]
  IC50: 0.45 µg/mL (≈ 0.946 µM)
  IC90: 1.78 µg/mL (≈ 3.74 µM)
A549 (human lung cancer)
  IC50: 1.79 µg/mL (≈ 3.76 µM)
  IC90: 6.05 µg/mL (≈ 12.7 µM)
[7]
  IC50: 0.85 µg/mL (≈ 1.79 µM)
  IC90: 1.81 µg/mL (≈ 3.81 µM)
[8]
  IC50: 1.39 µg/mL (≈ 2.92 µM)
  IC90: 2.91 µg/mL (≈ 6.12 µM)
[9]
  IC50: 1.09 µg/mL (≈ 2.29 µM)
  IC90: 1.86 µg/mL (≈ 3.91 µM)
[10]
  IC50: 1.15 µg/mL (≈ 2.42 µM)
  IC90: 3.59 µg/mL (≈ 7.55 µM)
[11]
  IC50: 1.35 µg/mL (≈ 2.84 µM)
  IC90: 5.26 µg/mL (≈ 11.1 µM)
[12]
  IC50: 1.28 µg/mL (≈ 2.69 µM)
  IC90: 3.67 µg/mL (≈ 7.72 µM)
MG63 (osteosarcoma)
  IC50: 1.02 µg/mL (≈ 2.15 µM)
  IC90: 3.26 µg/mL (≈ 6.86 µM)
[13]
  IC50: 0.8 µg/mL (≈ 1.68 µM)
  IC90: 3.87 µg/mL (≈ 8.14 µM)
[14]
  IC50: 0.87 µg/mL (≈ 1.83 µM)
  IC90: 11.1 µg/mL (≈ 23.3 µM)
PC-3 (prostate cancer)
  IC50: 1.71 µg/mL (≈ 3.6 µM)
  IC90: 8.19 µg/mL (≈ 17.2 µM)
[15]
  IC50: 0.28 µg/mL (≈ 0.589 µM)
  IC90: 2.88 µg/mL (≈ 6.06 µM)
[16]
  IC50: 3.96 µg/mL (≈ 8.33 µM)
  IC90: 7.99 µg/mL (≈ 16.8 µM)
[17]
  IC50: 0.86 µg/mL (≈ 1.81 µM)
  IC90: 1.83 µg/mL (≈ 3.85 µM)

## CCCCNCc1oc2c(c1C)C(=O)C(=O)c1c-2ccc2c(C)cccc12 [BS-TA-B10]
[1]
  IC50: 6 µg/mL (≈ 16.6 µM)
  IC90: > 16 µg/mL
[2]
  IC50: > 16 µg/mL
  IC90: > 16 µg/mL
[3]
  IC50: 0.76 µg/mL (≈ 2.1 µM)
  IC90: 1.8 µg/mL (≈ 4.98 µM)
[4]
  IC50: 0.4 µg/mL (≈ 1.11 µM)
  IC90: 0.92 µg/mL (≈ 2.55 µM)
[5]
  IC50: 5.79 µg/mL (≈ 16 µM)
  IC90: 15.4 µg/mL (≈ 42.7 µM)
[6]
  IC50: 15.8 µg/mL (≈ 43.8 µM)
  IC90: > 16 µg/mL
A549 (human lung cancer)
  IC50: 1.28 µg/mL (≈ 3.54 µM)
  IC90: 6 µg/mL (≈ 16.6 µM)
[7]
  IC50: > 16 µg/mL
  IC90: > 16 µg/mL
[8]
  IC50: > 16 µg/mL
  IC90: > 16 µg/mL
[9]
  IC50: > 16 µg/mL
  IC90: > 16 µg/mL
[10]
  IC50: 15.6 µg/mL (≈ 43 µM)
  IC90: > 16 µg/mL
[11]
  IC50: > 16 µg/mL
  IC90: > 16 µg/mL
[12]
  IC50: 15.8 µg/mL (≈ 43.6 µM)
  IC90: > 16 µg/mL
MG63 (osteosarcoma)
  IC50: > 16 µg/mL
  IC90: > 16 µg/mL
[13]
  IC50: > 16 µg/mL
  IC90: > 16 µg/mL
[14]
  IC50: 0.88 µg/mL (≈ 2.43 µM)
  IC90: 5.82 µg/mL (≈ 16.1 µM)
PC-3 (prostate cancer)
  IC50: > 16 µg/mL
  IC90: > 16 µg/mL
[15]
  IC50: 5.47 µg/mL (≈ 15.1 µM)
  IC90: > 16 µg/mL
[16]
  IC50: > 16 µg/mL
  IC90: > 16 µg/mL
[17]
  IC50: > 16 µg/mL
  IC90: > 16 µg/mL
